Source: ChEMBL document CHEMBL1150207, “Cytotoxicities of some flavonoid analogues” (1991)
Values after ≈ are worked out from the molar mass of the structure shown.

Assays:
Format in all cases: functional
Malme-3M = test: Cytotoxicity against human MALME-3M cells after 6 days by MTT assay; conditions: 144 h, read-out: ED50 (the source's name)
MCF7 = test: Cytotoxicity against human MCF7 cells after 6 days by MTT assay; conditions: MCF7, 144 h, read-out: ED50 (the source's name)
A549 = test: Cytotoxicity against human A549 cells after 6 days by MTT assay; conditions: A549, 144 h, read-out: ED50 (the source's name)
HT-29 = test: Cytotoxicity against human HT-29 cells after 6 days by MTT assay; conditions: HT-29, 144 h, read-out: ED50 (the source's name)
SK-MEL = test: Cytotoxicity against human SK-MEL cells after 6 days by MTT assay; conditions: 144 h, read-out: ED50 (the source's name)

| Compound | EC50 (Malme-3M) | EC50 (MCF7) | EC50 (A549) | EC50 (HT-29) | EC50 (SK-MEL) |
| --- | --- | --- | --- | --- | --- |
| COc1cc(-c2cc(=O)c3cc(O)ccc3o2)cc(OC)c1OC | > 25 µg/mL | > 25 µg/mL | 9.82 µg/mL (≈ 29.9 µM) | 7.85 µg/mL (≈ 23.9 µM) | 5.87 µg/mL (≈ 17.9 µM) |
| Nc1ccc(-c2cc(=O)c3cc(O)ccc3o2)cc1 | > 25 µg/mL | > 25 µg/mL | 2.72 µg/mL (≈ 10.7 µM) | 2.65 µg/mL (≈ 10.5 µM) | 2.03 µg/mL (≈ 8.02 µM) |
| COc1cc(-c2cc(=O)c3ccc(O)cc3o2)cc(OC)c1O | > 25 µg/mL | > 25 µg/mL | > 25 µg/mL | 6.5 µg/mL (≈ 20.7 µM) | > 25 µg/mL |
| COc1ccc2c(=O)c(C(=O)O)c(-c3ccc([N+](=O)[O-])cc3)oc2c1 | > 25 µg/mL | > 25 µg/mL | > 25 µg/mL | > 25 µg/mL | > 25 µg/mL |
| CC(=O)Nc1ccc(-c2cc(=O)c3ccc(OC(C)=O)cc3o2)cc1 | > 25 µg/mL | 19.2 µg/mL (≈ 56.9 µM) | 20.5 µg/mL (≈ 60.9 µM) | 19.8 µg/mL (≈ 58.7 µM) | 16.9 µg/mL (≈ 50.1 µM) |
| O=C(O)c1c(-c2ccc([N+](=O)[O-])cc2)oc2ccccc2c1=O | > 25 µg/mL | > 25 µg/mL | > 25 µg/mL | > 25 µg/mL | > 25 µg/mL |
| COc1cc(-c2cc(=O)c3ccc(OC(C)=O)cc3o2)cc(OC)c1O[Si](C)(C)C(C)(C)C | 2.95 µg/mL (≈ 6.27 µM) | 4.19 µg/mL (≈ 8.9 µM) | 2.9 µg/mL (≈ 6.16 µM) | 1.94 µg/mL (≈ 4.12 µM) | 0.8 µg/mL (≈ 1.7 µM) |
| COC(=O)c1c(-c2ccc(OC)cc2)oc2ccccc2c1=O | > 25 µg/mL | > 25 µg/mL | > 25 µg/mL | > 25 µg/mL | > 25 µg/mL |
| COc1cc(-c2cc(=O)c3ccc(O)c(O)c3o2)cc(OC)c1O[Si](C)(C)C(C)(C)C | 0.2 µg/mL (≈ 0.45 µM) | 0.31 µg/mL (≈ 0.697 µM) | 3.31 µg/mL (≈ 7.45 µM) | 0.34 µg/mL (≈ 0.765 µM) | 0.11 µg/mL (≈ 0.247 µM) |
| CC(=O)Nc1ccc(-c2cc(=O)c3c(OC(C)=O)cc(OC(C)=O)cc3o2)cc1 | > 25 µg/mL | 1.78 µg/mL (≈ 4.5 µM) | 22 µg/mL (≈ 55.6 µM) | 17.4 µg/mL (≈ 44 µM) | 14 µg/mL (≈ 35.3 µM) |
| O=c1cc(-c2ccc([N+](=O)[O-])cc2)oc2cc(O)ccc12 | > 25 µg/mL | > 25 µg/mL | 21.8 µg/mL (≈ 76.9 µM) | 6.95 µg/mL (≈ 24.5 µM) | > 25 µg/mL |
| O=c1cc(-c2cccc(O)c2)oc2cc(O)ccc12 | > 25 µg/mL | > 25 µg/mL | > 25 µg/mL | > 25 µg/mL | 5.11 µg/mL (≈ 20.1 µM) |
| COC(=O)c1c(-c2ccc(O)cc2)oc2ccccc2c1=O | > 25 µg/mL | > 25 µg/mL | > 25 µg/mL | > 25 µg/mL | > 25 µg/mL |
| COc1ccc(-c2oc3ccccc3c(=O)c2C(=O)O)cc1 | > 25 µg/mL | > 25 µg/mL | > 25 µg/mL | > 25 µg/mL | > 25 µg/mL |
| COC(=O)c1c(-c2ccc(OCc3ccccc3)cc2)oc2cc(OC)ccc2c1=O | > 25 µg/mL | 5.16 µg/mL (≈ 12.4 µM) | 20.4 µg/mL (≈ 49.1 µM) | 5.42 µg/mL (≈ 13 µM) | > 25 µg/mL |
| COC(=O)c1c(-c2ccc(O)cc2)oc2cc(OC)ccc2c1=O | 20.1 µg/mL (≈ 61.6 µM) | > 25 µg/mL | > 25 µg/mL | 19.2 µg/mL (≈ 58.9 µM) | 19.6 µg/mL (≈ 59.9 µM) |
| COc1ccc2oc(-c3ccc(O)cc3)c(C(=O)O)c(=O)c2c1 | > 25 µg/mL | > 25 µg/mL | > 25 µg/mL | > 25 µg/mL | > 25 µg/mL |
| O=c1cc(-c2ccc([N+](=O)[O-])cc2)oc2ccc(O)cc12 | > 25 µg/mL | > 25 µg/mL | 5.07 µg/mL (≈ 17.9 µM) | > 25 µg/mL | 21 µg/mL (≈ 74.2 µM) |
| COc1cc(-c2oc3ccccc3c(=O)c2C(=O)O)cc(OC)c1OC | > 25 µg/mL | > 25 µg/mL | > 25 µg/mL | > 25 µg/mL | > 25 µg/mL |
| Nc1ccc(-c2cc(=O)c3ccc(O)cc3o2)cc1 | > 25 µg/mL | > 25 µg/mL | 8.87 µg/mL (≈ 35 µM) | 4.71 µg/mL (≈ 18.6 µM) | 6.59 µg/mL (≈ 26 µM) |
| COc1ccc(-c2oc3ccccc3c(=O)c2C(=O)O)cc1OC | > 25 µg/mL | > 25 µg/mL | > 25 µg/mL | > 25 µg/mL | > 25 µg/mL |
| COc1ccc2c(=O)cc(-c3cc(OC)c(OC)c(OC)c3)oc2c1 | > 25 µg/mL | > 25 µg/mL | > 25 µg/mL | > 25 µg/mL | > 25 µg/mL |
| CC(C)(C)[Si](C)(C)Oc1ccc(-c2cc(=O)c3ccc(O)cc3o2)cc1 | > 10 µg/mL | 4.66 µg/mL (≈ 12.6 µM) | 6.45 µg/mL (≈ 17.5 µM) | 3.61 µg/mL (≈ 9.8 µM) | 5.64 µg/mL (≈ 15.3 µM) |
| COc1cc(-c2cc(=O)c3ccc(O)cc3o2)cc(OC)c1OC | > 25 µg/mL | > 25 µg/mL | > 25 µg/mL | > 25 µg/mL | > 25 µg/mL |
| O=c1cc(-c2cccc(O)c2)oc2c(O)c(O)ccc12 | 4.8 µg/mL (≈ 17.8 µM) | 3.71 µg/mL (≈ 13.7 µM) | 4.65 µg/mL (≈ 17.2 µM) | 4.18 µg/mL (≈ 15.5 µM) | 3.66 µg/mL (≈ 13.5 µM) |
| O=c1cc(-c2cccc(O)c2)oc2cccc(O)c12 | > 10 µg/mL | 6.93 µg/mL (≈ 27.3 µM) | 3.24 µg/mL (≈ 12.7 µM) | 3.47 µg/mL (≈ 13.6 µM) | 3.09 µg/mL (≈ 12.2 µM) |
